Results published in patent US20260223853A1, “PESTICIDALLY ACTIVE HETEROCYCLIC DERIVATIVES WITH SULFUR CONTAINING SUBSTITUENTS” (SYNGENTA CROP PROTECTION AG, priority 2023, published 2026).

Assays:
Type in all cases: in vivo
[1] = test system: Plutella xylostella (Diamond Back Moth); test: Example B6: Activity against Plutella xylostella (diamond back moth), artificial diet, eggs; conditions: 192 h, application rate of 200 ppm, 8 days after infestation, in comparison to untreated samples, read-out: effect in at least one of the two categories (mortality or growth inhibition)
Procedure: Example B6: Activity Against Plutella xylostella (Diamond Back Moth)
24-well microtiter plates with artificial diet were treated with aqueous test solutions prepared from 10′000 ppm DMSO stock solutions by pipetting. After drying, Plutella eggs were pipetted through a plastic stencil onto a gel blotting paper and the plate was closed with it. The samples were assessed for mortality and growth inhibition in comparison to untreated samples 8 days after infestation. The following compounds gave an effect of at least 80% in at least one of the two categories (mortality or growth inhibition) at an application rate of 200 ppm: P.1, P.2, P.3, P.4, P.5, P.6, P.7, P.8, P.9, P.10, P.11, P.12.

[2] = test system: Diabrotica balteata (Corn Root Worm); test: Example B2: Activity against Diabrotica balteata (corn root worm), maize sprouts, L2 larvae; conditions: 96 h, application rate of 200 ppm, 4 days after infestation, in comparison to untreated samples, read-out: effect in at least one of the two categories (mortality or growth inhibition)
Procedure: Example B2: Activity Against Diabrotica balteata (Corn Root Worm)
Maize sprouts placed onto an agar layer in 24-well microtiter plates were treated with aqueous test solutions prepared from 10′000 ppm DMSO stock solutions by spraying. After drying, the plates were infested with L2 larvae (6 to 10 per well). The samples were assessed for mortality and growth inhibition in comparison to untreated samples 4 days after infestation.

[3] = test system: Chilo suppressalis (Striped Rice Stemborer); test: Example B1: Activity against Chilo suppressalis (striped rice stemborer), artificial diet, L2 larvae; conditions: 144 h, application rate of 200 ppm, 6 days after infestation, in comparison to untreated samples, read-out: control (at least one of mortality, anti-feedant effect, growth inhibition)
Procedure: Example B1: Activity Against Chilo suppressalis (Striped Rice Stemborer)
24-well microtiter plates with artificial diet were treated with aqueous test solutions prepared from 10′000 ppm DMSO stock solutions by pipetting. After drying, the plates were infested with L2 larvae (6-8 per well). The samples were assessed for mortality, anti-feeding effect, and growth inhibition in comparison to untreated samples 6 days after infestation. Control of Chilo suppressalis by a test sample is given when at least one of the categories mortality, anti-feedant effect, and growth inhibition is higher than the untreated sample.

[4] = test system: Spodoptera littoralis (Egyptian Cotton Leaf Worm); test: Example B7: Activity against Spodoptera littoralis (Egyptian cotton leaf worm), cotton leaf discs, L1 larvae; conditions: foliar, 72 h, application rate of 200 ppm, 3 days after infestation, in comparison to untreated samples, read-out: control (at least one of mortality, anti-feedant effect, growth inhibition)
Procedure: Example B7: Activity Against Spodoptera littoralis (Egyptian Cotton Leaf Worm)
Cotton leaf discs were placed onto agar in 24-well microtiter plates and sprayed with aqueous test solutions prepared from 10′000 ppm DMSO stock solutions. After drying the leaf discs were infested with five L1 larvae. The samples were assessed for mortality, anti-feeding effect, and growth inhibition in comparison to untreated samples 3 days after infestation. Control of Spodoptera littoralis by a test sample is given when at least one of the categories mortality, anti-feedant effect, and growth inhibition is higher than the untreated sample.

[5] = test system: Myzus persicae (Green peach aphid); test: Example B4: Activity against Myzus persicae (green peach aphid), feeding/contact activity, sunflower leaf discs; conditions: foliar, 144 h, application rate of 200 ppm, 6 days after infestation
Procedure: Example B4: Activity against Myzus persicae (Green peach aphid) Feeding/Contact activity Sunflower leaf discs were placed onto agar in a 24-well microtiter plate and sprayed with aqueous test solutions prepared from 10′000 ppm DMSO stock solutions. After drying, the leaf discs were infested with an aphid population of mixed ages. The samples were assessed for mortality 6 days after infestation.

[6] = test system: Euschistus heros (Neotropical Brown Stink Bug); test: Example B3: Activity against Euschistus heros (neotropical brown stink bug), soybean leaves, N2 nymphs; conditions: 120 h, application rate of 200 ppm, 5 days after infestation, in comparison to untreated samples, read-out: effect in at least one of the two categories (mortality or growth inhibition)
Procedure: Example B3: Activity Against Euschistus heros (Neotropical Brown Stink Bug)
Soybean leaves on agar in 24-well microtiter plates were sprayed with aqueous test solutions prepared from 10′000 ppm DMSO stock solutions. After drying the leaves were infested with N2 nymphs. The samples were assessed for mortality and growth inhibition in comparison to untreated samples 5 days after infestation.

[7] = test system: Myzus persicae (Green peach aphid); test: Example B5: Activity against Myzus persicae (green peach aphid), systemic activity, pea seedlings; conditions: 144 h, test rate of 24 ppm, 6 days after placing seedlings into test solutions
Procedure: Example B5: Activity Against Myzus persicae (Green Peach Aphid) Systemic Activity
Roots of pea seedlings infested with an aphid population of mixed ages were placed directly into aqueous test solutions prepared from 10′000 DMSO stock solutions. The samples were assessed for mortality 6 days after placing seedlings into test solutions.

CCS(=O)(=O)c1c(N2CCc3nc(C(F)(F)F)ccc3C2=O)nc2cc(C(F)(F)F)ccn12 [P.1, 6-[3-ethylsulfonyl-7-(trifluoromethyl)imidazo[1,2-a]pyridin-2-yl]-2-(trifluoromethyl)-7,8-dihydro-1,6-naphthyridin-5-one]
≥ 80%: percent effect (mortality or growth inhibition) at 200 ppm [1] | percent effect (mortality or growth inhibition) at 200 ppm [2] | percent control (mortality, anti-feedant effect or growth inhibition) at 200 ppm [3] | control at 200 ppm [4] | mortality at 200 ppm [5]

CCS(=O)(=O)c1cc(C2(C#N)CC2)cnc1N1CCc2cc(C(F)(F)F)ccc2C1=O [P.2, 1-[5-ethylsulfonyl-6-[1-oxo-6-(trifluoromethyl)-3,4-dihydroisoquinolin-2-yl]-3-pyridyl]cyclopropane-carbonitrile]
≥ 80%: percent effect (mortality or growth inhibition) at 200 ppm [1] | percent effect (mortality or growth inhibition) at 200 ppm [2] | percent effect (mortality or growth inhibition) at 200 ppm [6] | percent control (mortality, anti-feedant effect or growth inhibition) at 200 ppm [3] | mortality at 200 ppm [5]

CCS(=O)(=O)c1cc(C2(C#N)CC2)cnc1N1CCc2cc(OC(F)(F)F)ccc2C1=O [P.4, 1-[5-ethylsulfonyl-6-[1-oxo-6-(trifluoromethoxy)-3,4-dihydroisoquinolin-2-yl]-3-pyridyl] cyclopropane-carbonitrile]
≥ 80%: percent effect (mortality or growth inhibition) at 200 ppm [1] | percent effect (mortality or growth inhibition) at 200 ppm [2] | percent effect (mortality or growth inhibition) at 200 ppm [6] | percent control (mortality, anti-feedant effect or growth inhibition) at 200 ppm [3] | control at 200 ppm [4] | mortality at 200 ppm [5]

CCS(=O)(=O)c1cc(C2(C#N)CC2)cnc1N1CCc2nc(C(F)(F)C(F)(F)F)ccc2C1=O [P.5, 1-[5-ethylsulfonyl-6-[5-oxo-2-(1,1,2,2,2-pentafluoroethyl)-7,8-dihydro-1,6-naphthyridin-6-yl]-3-pyridyl] cyclopropane-carbonitrile]
≥ 80%: percent effect (mortality or growth inhibition) at 200 ppm [1] | percent effect (mortality or growth inhibition) at 200 ppm [2] | percent effect (mortality or growth inhibition) at 200 ppm [6] | percent control (mortality, anti-feedant effect or growth inhibition) at 200 ppm [3] | control at 200 ppm [4]

CCS(=O)(=O)c1cc(C2(C#N)CC2)cnc1N1CCc2c(ccc3c2OC(F)(F)O3)C1=O [P.6, 1-[6-(2,2-difluoro-6-oxo-8,9-dihydro-[1,3]dioxolo[4,5-f]isoquinolin-7-yl)-5-ethylsulfonyl-3-pyridyl]cyclopropane-carbonitrile]
≥ 80%: percent effect (mortality or growth inhibition) at 200 ppm [1] | percent effect (mortality or growth inhibition) at 200 ppm [2] | percent effect (mortality or growth inhibition) at 200 ppm [6] | percent control (mortality, anti-feedant effect or growth inhibition) at 200 ppm [3] | control at 200 ppm [4] | mortality at 200 ppm [5]

CCS(=O)(=O)c1cc(C2(C#N)CC2)cnc1N1CCc2nc(OC3CC3)ccc2C1=O [P.7, 1-[6-[2-(cyclopropoxy)-5-oxo-7,8-dihydro-1,6-naphthyridin-6-yl]-5-ethylsulfonyl-3-pyridyl]cyclopropane-carbonitrile]
≥ 80%: percent effect (mortality or growth inhibition) at 200 ppm [1] | percent effect (mortality or growth inhibition) at 200 ppm [2] | mortality at 24 ppm [7] | percent control (mortality, anti-feedant effect or growth inhibition) at 200 ppm [3] | control at 200 ppm [4] | mortality at 200 ppm [5]

CCS(=O)(=O)c1cc(C2(C#N)CC2)cnc1N1CCc2nc(Cl)ccc2C1=O [P.8, 1-[6-(2-chloro-5-oxo-7,8-dihydro-1,6-naphthyridin-6-yl)-5-ethylsulfonyl-3-pyridyl]cyclopropane-carbonitrile]
≥ 80%: percent effect (mortality or growth inhibition) at 200 ppm [1] | mortality at 24 ppm [7] | control at 200 ppm [4]

CCS(=O)(=O)c1cc(C2(C#N)CC2)cnc1N1CCc2nc(OCC(F)(F)Cl)ccc2C1=O [P.9, 1-[6-[2-(2-chloro-2,2-difluoro-ethoxy)-5-oxo-7,8-dihydro-1,6-naphthyridin-6-yl]-5-ethylsulfonyl-3-pyridyl]cyclopropane-carbonitrile]
≥ 80%: percent effect (mortality or growth inhibition) at 200 ppm [1] | percent effect (mortality or growth inhibition) at 200 ppm [2] | percent effect (mortality or growth inhibition) at 200 ppm [6] | percent control (mortality, anti-feedant effect or growth inhibition) at 200 ppm [3] | control at 200 ppm [4] | mortality at 200 ppm [5]

CCS(=O)(=O)c1cc(C2(C#N)CC2)cnc1N1CCc2nc(OCC(F)(F)C(F)F)ccc2C1=O [P.10, 1-[5-ethylsulfonyl-6-[5-oxo-2-(2,2,3,3-tetrafluoropropoxy)-7,8-dihydro-1,6-naphthyridin-6-yl]-3-pyridyl] cyclopropane-carbonitrile]
≥ 80%: percent effect (mortality or growth inhibition) at 200 ppm [1] | percent effect (mortality or growth inhibition) at 200 ppm [2] | percent control (mortality, anti-feedant effect or growth inhibition) at 200 ppm [3] | control at 200 ppm [4] | mortality at 200 ppm [5]

CCS(=O)(=O)c1cc(C2(C#N)CC2)cnc1N1CCc2nc(OCC(Cl)(Cl)Cl)ccc2C1=O [P.11, 1-[5-ethylsulfonyl-6-[5-oxo-2-(2,2,2-trichloroethoxy)-7,8-dihydro-1,6-naphthyridin-6-yl]-3-pyridyl]cyclopropane-carbonitrile]
≥ 80%: percent effect (mortality or growth inhibition) at 200 ppm [1] | percent control (mortality, anti-feedant effect or growth inhibition) at 200 ppm [3] | control at 200 ppm [4]

CCS(=O)(=O)c1cc(C2(C#N)CC2)cnc1N1CCc2nc(OCC(F)(F)C(F)(F)F)ccc2C1=O [P.12, 1-[5-ethylsulfonyl-6-[5-oxo-2-(2,2,3,3,3-pentafluoropropoxy)-7,8-dihydro-1,6-naphthyridin-6-yl]-3-pyridyl]cyclopropane-carbonitrile]
≥ 80%: percent effect (mortality or growth inhibition) at 200 ppm [1] | percent effect (mortality or growth inhibition) at 200 ppm [2] | percent control (mortality, anti-feedant effect or growth inhibition) at 200 ppm [3] | control at 200 ppm [4] | mortality at 200 ppm [5]

CCS(=O)(=O)c1cc(C2(C#N)CC2)cnc1N1CCc2nc(OCC(Cl)(Cl)C(F)(F)F)ccc2C1=O [P.13, 1-[6-[2-(2,2-dichloro-3,3,3-trifluoro-propoxy)-5-oxo-7,8-dihydro-1,6-naphthyridin-6-yl]-5-ethylsulfonyl-3-pyridyl]cyclopropane-carbonitrile]
≥ 80%: percent control (mortality, anti-feedant effect or growth inhibition) at 200 ppm [3] | control at 200 ppm [4]
